These results are taken from US6533767B2, “Methods for enhancing fluid flow through an obstructed vascular site, and systems and kits for use in practicing the same” (Corazon Technologies, Inc., priority 2000, dated 2003).

Series [1] can be described thus: In vitro cholesterol dissolution. Format: physicochemical. The conditions noted are these: for cholesterol crystal presence or absence and crystal morphology (light microscopy): 0.1 grams cholesterol in 50 mLs surfactant solution, agitation up to 1 hour, 200x magnification, time as in value; for effectiveness in solvating / dissolving crystalline cholesterol: 0.1 grams cholesterol in 50 mLs 1% surfactant solution. The protocol:
Dissolution of cholesterol was examined in different solutions of bile salts, non-ionic, and ionic surfactants. Solutions of bile salts were prepared as follows: 0.5% solutions of cholic, dehydrocholic, deoxycholic, lithocholic acids were made by dissolving 0.5 grams of the free acid powders in 100 mL H2O previously adjusted to pH=12 with sodium hydroxide. Solutions were then adjusted to pH=7.5 with HCl. 1% surfactant solutions were made by dilution of concentrated stock solutions: Benzalkonium chloride, nonoxynol-9, sodium dodecyl sulfate, were prepared immediately prior to use. Dissolution studies were performed by adding 0.1 grams cholesterol powdered crystals to 50 mLs of the above surfactants with agitation on a rocker table for 1 hour. Solutions were then examined under light microscopy 200× magnification and cholesterol crystal presence or absence and crystal morphology recorded for each solution.

The nature of series [2]: In vitro thrombus removal in cadaveric femoral arteries. Particulars: 1% solution, approximately 60 cc per treatment over a 10 minute interval. The protocol:
Fresh cadaveric femoral arteries which contained soft clots partially occluding the. vessel lumen were used. […] Vessels were treated with a 1% surfactant solution of sodium dodecyl sulfate (SDS, Sigma chemicals), prepared immediately prior to use. Treatment consisted of injection of surfactant through a 35 cc male luer syringe and flow characteristics recorded.

Series [3] can be described thus: Solution containing surfactant and acid components, effect on cholesterol crystals. In kind it is physicochemical. The conditions noted are these: SDS 1%; combination with 0.1N HCl pH 1.0, isotonic (300 mOsmol). As for the experimental part:
A solution of sodium dodecyl sulfate (SDS) (a.k.a. sodium lauryl sulfate) (1%) and 0.1N hydrochloric acid (pH 1.0) made isotonic (300 mOsmol) with sodium chloride was prepared and compared with a solution of sodium dodecyl sulfate solution (1%). […] This combination solution can be buffered with sodium bicarbonate (NaHCO3) in the same manner that the hydrochloric acid solution is buffered with NaHCO3, as described in the specification supra.

In the case of nonoxynol-9, the “cholesterol crystal presence or absence and crystal morphology (light microscopy)” value in series [1] is “little or no observable effect on the crystal structure”.

Regarding `CCCCCCCCCCCCOS(=O)(=O)[O-].[Na+]` [Sodium dodecyl sulfate, sodium dodecyl sulfate], in series [2], the “flow through vessel after treatment” value is “Flow was reestablished in all samples” and the “removal of soft thrombus” value is “effective in removing soft thrombus from occluded femoral arteries”. In addition, in series [1], the “effectiveness in solvating / dissolving crystalline cholesterol” value is on record as “most effective in solvating”; the “cholesterol crystal presence or absence and crystal morphology (light microscopy)” value was “no free crystals were observed 5 minutes after cholesterol addition”. In addition, the “micelle formation around cholesterol crystals” value in series [3] is “formed micelles around cholesterol crystals making the cholesterol crystals water soluble”.

Consider Benzalkonium chloride, for which, in series [1], the “effectiveness in solvating / dissolving crystalline cholesterol” value is “appeared to dissolve most of the crystalline cholesterol”; the “cholesterol crystal presence or absence and crystal morphology (light microscopy)” value is on record as “still crystals apparent after 10 minutes”. The crystal dissolution result in series [1] (by 1 hour) was “approximately 50%”.
